Like-named read-outs stand apart in the source and are kept apart here.
Tests used:
[1] = test system: HCV replicon cells; experiment: HCV replicon FRET / luciferase assay (96-well plates); assay type: cell-based; conditions: Hepatitis C virus, HCV replicon, read-out: EC50
Outline: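 Replicon cells + titrated cpds, 37 °C CO2. Alamar blue for cytotoxicity, PBS rinse, then lysis reagent w/ 20 μM FRET peptide (EDANS/DABCYL), 150 mM NaCl; kinetic read ex340/em490, 20 cycles. Alt: Dual-Glo luciferase. EC50 = 50% drop in FRET/luciferase signal after background subtraction.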

[2] = biological target: T1, HCV NS5B RdRp genotype 1b (Hepatitis C virus genotype 1b, UniProt Q9WMX2); experiment: Standard HCV NS5B RdRp enzyme assay; assay type: biochemical; conditions: HCV NS5B RdRp genotype 1b, read-out: IC50
T1 construct: The protein was expressed with an 18 amino acid C-terminal truncation to enhance the solubility; made in house; host or cells: E. coli BL21(DE3), pET21a vector
T1 sequence (Q9WMX2 2420-2992): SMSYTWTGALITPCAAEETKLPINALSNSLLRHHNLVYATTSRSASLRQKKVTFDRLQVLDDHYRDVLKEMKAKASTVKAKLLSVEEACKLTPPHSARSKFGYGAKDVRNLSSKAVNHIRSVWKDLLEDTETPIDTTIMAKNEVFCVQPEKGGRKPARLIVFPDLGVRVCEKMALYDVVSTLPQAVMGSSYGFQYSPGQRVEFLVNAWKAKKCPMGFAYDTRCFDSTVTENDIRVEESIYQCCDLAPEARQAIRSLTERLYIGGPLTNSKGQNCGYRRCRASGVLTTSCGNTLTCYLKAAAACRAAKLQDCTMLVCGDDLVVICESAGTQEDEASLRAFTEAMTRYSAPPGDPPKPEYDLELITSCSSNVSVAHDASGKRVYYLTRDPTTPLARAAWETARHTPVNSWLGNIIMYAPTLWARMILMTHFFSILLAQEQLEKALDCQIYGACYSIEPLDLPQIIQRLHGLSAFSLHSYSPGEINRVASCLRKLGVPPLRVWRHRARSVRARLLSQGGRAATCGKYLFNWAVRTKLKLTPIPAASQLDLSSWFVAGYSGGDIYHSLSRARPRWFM
Outline: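 C-terminally truncated (18 aa) genotype 1b NS5B from E. coli, 28 nM, with 6 nM polyA template, 180 nM biotinylated oligo-dT12 primer and 3H-UTP (0.29 μM total UTP). Hepes pH 7.5 buffer with 2% DMSO; 60 min at 30° C. EDTA stop, SPA read-out; IC50 from seven concentrations by four-parameter fit.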

[3] = untitled table after Table 1b, values without asterisk

SMILES | EC50 ([1]; Table 1a) | IC50 ([2]; Table 1a) | other results
CNC(=O)c1c(-c2ccc(F)cc2)oc2ccc(-c3cccc(C(=O)N4CCCC4c4ccccc4)c3)cc12 (stereo not drawn) | 0.25 to 1 µM | 0.25 to 1 µM | 
CNC(=O)c1c(-c2ccc(F)cc2)oc2cc([N+](=O)[O-])c(-c3cc(C(=O)NC4(c5ccccc5)CC4)ccc3OC)cc12 |  |  | EC50 ([1]; Table 1b): 0.25 to 1 µM; IC50 ([2]; Table 1b): < 0.25 µM
CNC(=O)c1c(-c2ccc(F)cc2)oc2ccc(-c3cccc(C(=O)NCc4cccc(C)c4)c3)cc12 | < 0.25 µM | < 0.25 µM | 
CNC(=O)c1c(-c2ccc(F)cc2)oc2ccc(-c3cccc(C(=O)N(C)CCC#N)c3)cc12 [drawing 204] | 1 to 10 µM | 0.25 to 1 µM | 
CNC(=O)c1c(-c2ccc(F)cc2)oc2ccc(-c3ccc(-c4cccc(CO)c4)c(C(=O)NCC(C)C)c3)cc12 |  |  | EC50 ([1]; Table 1b): < 0.25 µM; IC50 ([2]; Table 1b): < 0.25 µM
CNC(=O)c1c(-c2ccc(F)cc2)oc2ccc(-c3cc(C(=O)CCC(C)C)ccc3OCCN(C)C)cc12 | < 0.25 µM | < 0.25 µM | 
CNC(=O)c1c(-c2ccc(F)cc2)oc2ccc(-c3cccc(C(=O)N4CCC(C)CC4)c3)cc12 | 1 to 10 µM | 1 to 10 µM | 
CNC(=O)c1c(-c2ccc(F)cc2)oc2ccc(-c3cccc(/C=C/C(=O)O)c3)cc12 | 1 to 10 µM | 0.25 to 1 µM | 
CNC(=O)c1c(-c2ccc(F)cc2)oc2ccc(-c3cccc(C#N)c3)cc12 | 0.25 to 1 µM | > 10 µM | 
CNC(=O)c1c(-c2ccc(F)cc2)oc2ccc(-c3cccc(C(=O)N(C)CCO)c3)cc12 | 1 to 10 µM | 1 to 10 µM | 
CNC(=O)c1c(-c2ccc(F)cc2)oc2ccc(-c3cc(OC)ncc3Cl)cc12 | > 1.23 µM | > 10 µM | 
CNC(=O)c1c(-c2ccc(F)cc2)oc2ccc(-c3cccc(C(=O)Nc4ccccc4Cl)c3)cc12 | 1 to 10 µM | 1 to 10 µM | 
CNC(=O)c1c(-c2ccc(F)cc2)oc2ccc(-c3cccc(C(=O)N[C@@H](CO)CC(C)C)c3)cc12 | 1 to 10 µM | 1 to 10 µM | 
CNC(=O)c1c(-c2ccc(F)cc2)oc2ccc(-c3cc(OCCn4cncn4)cc(C(=O)NCC(C)C)c3)cc12 |  |  | EC50 ([1]; Table 1b): 1 to 10 µM; IC50 ([2]; Table 1b): 0.25 to 1 µM
CNC(=O)c1c(-c2ccc(F)cc2)oc2ccc(-c3cccc(C(=O)N4CCCC(CO)C4)c3)cc12 (stereo not drawn) | 1 to 10 µM | 1 to 10 µM | 
CNC(=O)c1c(-c2ccc(F)cc2)oc2ccc(-c3cccc(C(=O)NCC(C)C)c3)cc12 | < 0.25 µM | < 0.25 µM | 
CNC(=O)c1c(-c2ccc(F)cc2)oc2ccc(-c3cnc(OC)c(F)c3)cc12 | 1 to 10 µM | > 10 µM | 
CNC(=O)c1c(-c2ccc(F)cc2)oc2ccc(-c3cc(C(=O)O)ccc3Cl)cc12 | > 10 µM | 1 to 10 µM | 
CNC(=O)c1c(-c2ccc(F)cc2)oc2ccc(-c3cc(C(=O)NCC(C)C)ccc3OCCN3CCOCC3)cc12 |  |  | EC50 ([1]; Table 1b): < 0.25 µM; IC50 ([2]; Table 1b): < 0.25 µM
CNC(=O)c1c(-c2ccc(F)cc2)oc2ccc(-c3cc(C(=O)NC4(c5ncccn5)CC4)cc(F)c3C)c(F)c12 [drawing 712] |  |  | EC50 ([1]; 24 h, second table titled Table 1d (numbers)): 0.0024 µM; IC50 ([2]; second table titled Table 1d (numbers)): 0.0081 µM
CNC(=O)c1c(-c2ccc(F)cc2)oc2ccc(-c3cccc(C(=O)NC(C)(C)C(=O)Nc4nccnn4)c3)cc12 |  |  | EC50 ([1]; Table 1b): < 0.25 µM; IC50 ([2]; Table 1b): < 0.25 µM
CNC(=O)c1c(-c2ccc(F)cc2)oc2ccc(-c3cccc(C(=O)N(C)CCC#N)c3)cc12 [drawing 616] |  |  | EC50 [1, 3]: 1.38 µM; IC50 ([2]; untitled table after Table 1b): 0.8 µM
CNC(=O)c1c(-c2ccc(F)cc2)oc2ccc(-c3cc(Br)cnc3F)cc12 | > 10 µM | > 10 µM | 
CNC(=O)c1c(-c2ccc(F)cc2)oc2ccc(-c3cccc4[nH]ccc34)cc12 | 0.25 to 1 µM | > 10 µM | 
CNC(=O)c1c(-c2ccc(F)cc2)oc2ccc(-c3ccc(-c4cnn(C)c4)c(C(=O)NCC(C)C)c3)cc12 |  |  | EC50 ([1]; Table 1b): < 0.25 µM; IC50 ([2]; Table 1b): < 0.25 µM
CNC(=O)c1c(-c2ccc(F)cc2)oc2ccc(-c3cccc(C(=O)NC(C)(C)C(=O)Nc4cc(C)on4)c3)cc12 |  |  | EC50 ([1]; Table 1b): < 0.25 µM; IC50 ([2]; Table 1b): < 0.25 µM
CNC(=O)c1c(-c2ccc(F)cc2)oc2cc(N)c(-c3cccc(C(=O)NC(C)(C)c4ccccc4)c3)cc12 [drawing 607] |  |  | EC50 [1, 3]: 0.00247 µM; IC50 ([2]; untitled table after Table 1b): 0.00545 µM
CNC(=O)c1c(-c2ccc(F)cc2)oc2ccc(-c3ccc(Cl)cc3C(=O)O)cc12 | > 10 µM | 1 to 10 µM | 
CNC(=O)c1c(-c2ccc(F)cc2)oc2ccc(-c3cccc(C(=O)NCCC#N)c3)cc12 | 0.25 to 1 µM | 0.25 to 1 µM | 
CNC(=O)c1c(-c2ccc(F)cc2)oc2ccc(-c3cc(C(=O)O)cc([N+](=O)[O-])c3)cc12 | > 10 µM | 0.25 to 1 µM | 

Source: patent publication US8309558B2, “Compounds for the treatment of hepatitis C” (Bristol-Myers Squibb Company, priority 2008, dated 2012)
